How the values were obtained:
[1] = literature values [11-13]; cited from earlier work
insulin = insulin (Homo sapiens, UniProt P01308); experiment: Inhibition of peptide and protein aggregation (insulin precipitation); format: physicochemical; settings: insulin 0.4 mg/ml, surfactant 1.4 mg/ml, pH 6.8 or 7.4, 25 and 40° C., 2-12 weeks
Source text: Inhibition of peptide and protein aggregation is crucial for the physical stability and safety, particularly for pharmaceutics for injection (injectabilia). Therefore, surfactants are normally applied as inhibitors of peptide and protein aggregation in such formulations. The ability, of a C16G8/14 mixture to inhibit peptide and protein aggregation in solution was investigated using insulin as model peptide.

Sequence of insulin (P01308 25-54 limits assumed, species assumed): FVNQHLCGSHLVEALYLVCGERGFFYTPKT
Sequence of insulin (P01308 90-110 limits assumed, species assumed): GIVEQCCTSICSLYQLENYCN

SMILES | Krafft point [1] | Inhibition of insulin precipitation (visual inspection) (insulin)
CCCCCCCCCCCCO[C@@H]1O[C@H](CO)[C@@H](O)[C@H](O)[C@H]1O [C12G1] | 38 °C | 
CCCCCCCCCCCCCCO[C@@H]1O[C@H](CO)[C@@H](O[C@@H]2O[C@@H](CO)[C@H](O)[C@@H](O)[C@@H]2O)[C@H](O)[C@H]1O (stereo in doubt) [C14G2, tetradecylmaltoside] | 32 °C | unable to inhibit precipitation, even under non-accelerated conditions
